Test results published in publication PMC5815658 (Journal of Medicinal Chemistry, 2017).
Values after ≈ are worked out from the molar mass of the structure shown. “Also recorded” adds a separate entry of the source. Like-named read-outs stand apart in the source and are kept apart here.

Key:
CRBN = biological target: T1, CRBN (Homo sapiens, UniProt Q96SW2); test: Rescue of PDP 16 pirin depletion by CRBN-binding competitive ligand in SK-OV-3 cells; format: cell-based; settings: 10 μM, 4 h pretreatment, then PDP 16 (5 nM) 2 h
T1 construct: endogenous in cells; host or cells: SK-OV-3
Method: Cell line: The human ovarian carcinoma cell line (SK-OV-3) was obtained from an ICR collaborator in the 1990s. It was passaged in vivo in athymic mice to increase its tumorigenicity and reliability as a xenograft, and used within 10 passages of banked stocks.
(§1) Prior to use, the cells were analyzed by short tandem repeat (STR) profiling. Polymorphic STR loci were amplified using a polymerase chain reaction (PCR) primer set. The PCR product (each locus being labelled with a different fluorophore) was analyzed simultaneously with size standards using automated fluorescent detection. The number of repeats at 10 different loci (as recommended by the American Type Culture Collection, ATCC) was used to define the STR profile and this was cross-referenced with online databases to confirm authenticity. […]
the ATCC reference line (LGC Promochem, UK). The cells were free of mycoplasma contamination as determined by a sensitive nested PCR protocol (Venor GeM kit, Minerva Biolabs, Germany). […]
Samples were sonicated and centrifuged at 20,000 x g for 15 min and the protein extract (supernatant) collected. The total protein of samples was determined using a bicinchoninic acid (BCA) protein assay kit (Thermo Fisher Scientific). […]
Samples were treated, harvested and lysed as described above. […] The data was analyzed with the Compass software (ProteinSimple). […]

[1] = LogD7.4 determination by RP-HPLC; settings: pH 7.4
[2] = Kinetic solubility determination by RP-HPLC; settings: PBS, pH 7.4, aqueous buffer, kinetic from dmso stock
[3] = Chemical stability as solid and in DMSO stock solution; format: physicochemical; settings: room temperature, data not shown
CRBN-DDB1 complex = biological target: T2, CRBN-DDB1 complex (Homo sapiens, UniProt Q96SW2); test: CRBN/DDB1 fluorescence polarization competition assay; format: binding
T2 construct: His6-ZZ-HRV3C (N); made in house; host or cells: Sf9 insect cells (baculovirus co-infection)
Method: CRBN/DDB1 Fluorescence Polarization Assay […]
Unless otherwise stated, the aqueous assay buffer contained 0.02 M HEPES((4-(2-hydroxyethyl)-1-piperazineethanesulfonic acid)) pH 8.0, 0.15 M NaCl, 0.5 mM TCEP ((tris(2-carboxyethyl)phosphine)), 0.05% Tween 20. The assay was conducted using 384 well black plates (ProxiPlate F Plus, Perkin-Elmer, Massachusetts, USA).
Plate Reader. […] Fluorescence […]
polarization was measured in units of millipolarization (mP) and are background corrected. Data were plotted and analyzed using […]
All experiments were performed in triplicate unless otherwise stated. Values are quoted as the geometric […]
Each graph is a representative example of a single biological repeat unless otherwise stated.
CRBN/DDB1 Protein Expression & Purification
Protein expression and purification methods adapted from Lopez-Girona et al.5 Full length human CRBN (accession number NM016302) was amplified by PCR & inserted downstream of the polyhedrin promoter of a pFBDM expression vector which had been modified to introduce a N-terminal His6-ZZ-HRV3C tag. Full length human DDB1 (accession number NM001923) was amplified by PCR with primers which introduced a C-terminal StrepTag and inserted downstream of the p10 promoter of a separate pFBDM expression vector. Baculoviruses were generated according to Bac-to-Bac protocols (Invitrogen) and used to co-infect Sf9 cells grown @ 27 °C in shaker flasks using Insect-XPRESS media (Lonza). Cells were harvested 48 hours post infection and frozen. For purification, pellets were thawed & resuspended in 5 volumes of Histrap buffer A (see below) and lysed […]
Superdex 200 (HiLoad 26/600), ResourceQ (6 mL) and finally a second Superdex 200 (HiLoad 26/600) column. All columns were from GE Healthcare and all purification steps were performed @ 4 °C. HisTrap buffer A: 50mM Tris (2-Amino-2-(hydroxymethyl)propane-1,3-diol), 500mM NaCl, 0.5mM TCEP ((tris(2-carboxyethyl)phosphine), 5% glycerol, pH 8.0. HisTrap Buffer B: + 250 mM imidazole. Superdex 200 buffer: 50mM Tris, 200mM NaCl, 0.5mM TCEP, 5% glycerol, pH 8.0. Resource Q buffer A: 50mM Tris, 0.5mM TCEP, 5% Glycerol, pH8.0. Resource Q buffer B + 1M NaCl.
California, USA) to prepare CRBN/DDB1 concentrations from 0.1 to 500 nM in 10 µL final assay volume containing 5 nM FP- […]
point prior to analysis. The KD was calculated using non-linear regression and a one-site specific binding model.
Analysis of competition assay FP-probe bound fraction […]
fb=probe bound fraction, KD=probe dissociation constant, L0=probe concentration, R0=protein concentration, Ki=ligand […]
CRBN/DDB1 Competition Assay
Compounds as solutions in DMSO were dispensed using an ECHO 550 Liquid Handler (Labcyte Inc).
Tracer controls (5 nM FP-probe S18 assay buffer only) and bound tracer controls (5 nM and 80 nM CRBN/DDB1) were included on each assay plate . Plates were incubated overnight at 4 °C before warming to room temperature and fluorescence polarization measured using an EnVision plate reader (Perkin -Elmer, Massachusetts, USA). IC 50 values […]
Table S2. CRBN/DDB1 Control Compounds

pirin = biological target: T3, pirin (Homo sapiens, UniProt O00625); test: Pirin SPR (surface plasmon resonance) binding
T3 sequence (O00625 1-290): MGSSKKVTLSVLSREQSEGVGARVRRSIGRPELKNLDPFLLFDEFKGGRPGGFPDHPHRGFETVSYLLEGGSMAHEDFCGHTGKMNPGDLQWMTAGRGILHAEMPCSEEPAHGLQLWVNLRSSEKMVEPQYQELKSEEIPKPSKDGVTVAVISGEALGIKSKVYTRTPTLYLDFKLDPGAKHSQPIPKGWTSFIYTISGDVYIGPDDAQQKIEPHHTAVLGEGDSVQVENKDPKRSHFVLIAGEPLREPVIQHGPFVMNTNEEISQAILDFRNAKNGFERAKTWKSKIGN

[4] = PDP aqueous stability protocol; settings: 37 °C, pH 7.4 phosphate buffer
[5] = biological target: T4, pirin protein in SK-OV-3 human ovarian cancer cells (Homo sapiens, UniProt O00625); test: Pirin depletion in SK-OV-3 cells (immunoblot / capillary electrophoresis immunoassay); format: cell-based; settings: SK-OV-3 cells, Figure S18
T4 construct: endogenous in cells; host or cells: SK-OV-3
T4 sequence (O00625 1-290): T3 sequence (O00625 1-290)
Method: in vivo in athymic mice to increase its tumorigenicity and reliability as a xenograft, and used within 10 passages of banked stocks.
as §1
the ATCC reference line (LGC Promochem, UK). […]
nested PCR protocol (Venor GeM kit, Minerva Biolabs, Germany). Cells were grown in DMEM/10 % FCS, 2 mM glutamine and nonessential amino acids in 5 % CO2.
SK-OV-3 cells were treated as for each experimental condition. Cells were harvested and lysed by scraping in urea lysis buffer (20 mM HEPES pH 8.0, 9 M urea, 1 mM sodium orthovanadate, 2.5 mM sodium pyrophosphate, 1 mM β-glycerophosphate). […]
of samples was determined using a bicinchoninic acid (BCA) protein assay kit (Thermo Fisher Scientific). Western blotting was carried out as previously described.10 Pirin and GAPDH antibodies were obtained from Abcam (ab157212) and Merck […]
Samples were treated, harvested and lysed as described above. A total of 5 μL of 0.2 mg/mL protein was loaded into plates and capillary western analysis was carried out according to the manufacturer’s instructions (ProteinSimple WES). The data was analyzed with the Compass software (ProteinSimple).
Sigma-Aldrich and Cell Signaling Technology, respectively.
10 Sharp SY, Boxall K, Rowlands M, Prodromou C, Roe SM, Maloney A, Powers M, Clarke PA, Box G, Sanderson S, Patterson L, Matthews TP, Cheung KM, Ball K, Hayes A, Raynaud F, Marais R, Pearl L, Eccles S, Aherne W, McDonald E, Workman P. In vitro biological characterization of a novel, synthetic diaryl pyrazole resorcinol class of heat shock protein 90 inhibitors.

| Structure (SMILES) | Rescue of pirin depletion by thalidomide pretreatment (CRBN) | chromatographic logD [1] | solubility kinetic at 120 min [2] [µM] | Time stable as a solid and in DMSO stock solution [3] [month] | IC50 (CRBN-DDB1 complex; CRBN/DDB1 FP IC50, single repeat N=2, best-fit value, variable slope four parameters) [µM] | IC50 (CRBN-DDB1 complex; best-fit value, variable slope four parameters, read-out: CRBN/DDB1 FP IC50, single repeat N=1) [µM] | IC50 (CRBN-DDB1 complex; best-fit value, variable slope four parameters, read-out: CRBN/DDB1 FP IC50, single repeat N=3) [µM] | Ki (CRBN-DDB1 complex; calculated from geometric mean CRBN-DDB1 IC50 and FP-probe KD) [µM] | IC50 (CRBN-DDB1 complex; column statistics, read-out: CRBN/DDB1 FP pIC50, mean of 3 values (unrounded) (converted)) [µM] | IC50 (CRBN-DDB1 complex; displacement of thalidomide derived fluorescent probe, geometric mean n = 3, read-out: CRBN/DDB1 FP IC50) [µM] | IC50 (CRBN-DDB1 complex; n = 3 independent biological repeats, read-out: CRBN/DDB1 FP pIC50±SEM (converted)) [µM] | Kd (pirin; Pirin SPR KD, equilibrium analysis, one site specific binding model, geometric mean n = 3) [µM] | Kd (pirin; Pirin SPR KD, representative single repeat, best-fit value, one site specific binding) [µM] | Kd (pirin; Pirin SPR pKD±SEM, n = 3 independent biological repeats) [µM] | Measured Rmax/Theoretical Rmax (pirin; SPR) | Half-life (aqueous stability) [4] [h] | half-life at 100 µM ([4]; phosphate buffer (PBS), pH 7.4, Half-life (aqueous stability)) [h] | Depletion of intracellular pirin expression ([5]; 3.0 μM total concentration, up to 48 h) | Compound exposure needed before pirin degradation was observed [5] |
| --- | --- | --- | --- | --- | --- | --- | --- | --- | --- | --- | --- | --- | --- | --- | --- | --- | --- | --- | --- |
| O=C1CCC(N2C(=O)c3ccccc3C2=O)C(=O)N1 (stereo not shown) [Thalidomide] | rescues pirin protein depletion; also recorded: successfully rescued pirin depletion | – | – | – | – | – | – | – | – | – | – | – | – | – | – | – | – | – | – |
| O=C(COc1cccc2c1C(=O)N(C1CCC(=O)NC1=O)C2=O)NCCOCCC(=O)N1CCN(Cc2ccc3cc(C(=O)Nc4cc(NC(=O)c5ccc6c(c5)OCCO6)ccc4F)ccc3n2)CC1 (stereo not shown) [PDP 10, N-(5-(2,3-Dihydrobenzo[b][1,4]dioxine-6-carboxamido)-2-fluorophenyl)-2-((4-(3-(2-(2-((2-(2,6-dioxopiperidin-3-yl)-1,3-dioxoisoindolin-4-yl)oxy)acetamido)ethoxy)propanoyl)piperazin-1-yl)methyl)quinoline-6-carboxamide] | – | 1.9 | 5 (≈ 4.85 µg/mL) | > 1 | 0.331 | 0.568 | 0.377 | 0.095 | 0.414 | 0.41 | 0.417 | 0.23 | 0.224 | 0.234 | 0.40 | ~4 | 4.1 | clear and time-dependent depletion of intracellular pirin expression | at least 24 h |
